# In PMC6581936, “Impact of Intracellular Concentrations on Metabolic Drug-Drug Interaction Studies” (The AAPS Journal, 2019):
# Read-outs that look alike come from different tables or passages of the source.
# Columns and labels:
# [1] = Fraction unbound to microsomes (fu,mic), equilibrium dialysis, HLM 0.2 mg/mL; details: both, human
# CYP1A2 [2] = biological target: T1, CYP1A2 (Homo sapiens, UniProt P05177); assay: CYP1A2 inhibition in HLM; format: biochemical; details: average values from table S1; read-out: IC50,app HLM
# [3] = Kpuu in rat hepatocytes derived from literature Kp; format: in vitro ADME; details: literature rat Kp x experimental (human) fu,cell
# [4] = design: method as in Brown et al., Drug Metab Dispos 2010; details: rat liver microsomes; ref Brown et al., Drug Metab Dispos 2010; cited from earlier work
# [5] = Steady-state cellular uptake (Kp) in suspended HH; format: in vitro ADME; details: human, suspended human hepatocytes; for Kp at 5 min, 0.5 μM: RO compounds, parameters matched to the IC50 assay
# Method: The Kp in suspended HH was measured similarly to previous reports with some modifications ([7],[18]). Briefly, cells were rinsed twice with […] 10 mM HEPES. One hundred microliters of cell suspension (5 × 10^6 cells/mL) was added to a conical 96-well plate, and 100 μL of 1 μM drug solutions in Hank’s buffered salt solution (HBSS) buffered with 10 mM HEPES was added (resulting in a 0.5 μM final concentration). All incubations were performed in triplicates on up to three independent occasions. Full-time curves were established at 1, 3, 7.5, 15, 30, and 45 min to determine Kp at equilibrium. For single time point measurements, the incubation time was matched to the CYP inhibition assays. A sample of the medium was removed after centrifugation in a pre-cooled centrifuge at 4°C (100×g, 5 min), and ten-fold diluted with a mixture of acetonitrile and water (60:40) containing the internal standard for determination of Cmedium. The remaining supernatant was removed by aspiration and cells were washed twice with ice-cold buffer. The intracellular compound was extracted using the acetonitrile to water to internal standard mixture for determination of the amount of drug in the cells (Acell). Protein content (Pcell) was quantified using the BCA assay in representative wells to establish the cellular volume (Vcell), assuming 6.5 μL/mg protein ([23]). Finally, Kp was calculated using Eq. (2)2 Kp=Acell/Vcell∙Pcell/Cmedium
# CYP1A2 [6] = tested on: CYP1A2; design: method as in earlier work; details: RH; TPH/1,3-DMU; ref [2] Brown et al., Drug Metab Dispos 2010; read-out: Ki (Ki,app); cited from earlier work
# CYP1A2 [7] = biological target: T1, CYP1A2; assay: CYP1A2 inhibition in suspended HH; format: cell-based; details: TCR/1'-OH, source [3] In house
# Method: (§1) For HH, 50 μL of a suspension of cryopreserved HH (3 × 10^6 cells/mL) were added to a 96-well round bottom plate and pre-incubated for 20 min in Williams E medium (without FBS). Fifty microliters of a × 3 concentrated test compound-solution and 50 μL of × 3 concentrated substrate (diclofenac for CYP2C9, midazolam for CYP3A4 and tacrine for CYP1A2) were added and the plate was incubated on a shaker at 37°C, 5% CO2, and 900 rpm. Incubations were stopped after 5 min by transferring 100 μL of the suspension to a fresh plate and adding 100 μL of acetonitrile containing the internal standard and then analyzed as above.
# [8] = design: method as in Brown et al, DMD, 2010; details: rat; calculated from Kilford et al. (2008); ref Brown et al, DMD, 2010; cited from earlier work
# [9] = Fraction unbound in the cell (fu,cell), homogenization method/equilibrium dialysis; format: in vitro ADME, human; details: HH homogenate; for fraction unbound at 4 h, 0.5 μM / fraction unbound at 0.5 μM: human, human hepatocyte cell homogenate
# CYP1A2 [10] = tested on: CYP1A2; design: method as in earlier work; details: RLM; TPH/1,3-DMU; ref [2] Brown et al., Drug Metab Dispos 2010; read-out: Ki (Ki,app); cited from earlier work
# [11] = Kp and mass balance in HH in presence and absence of CYP inhibitor ABT; format: in vitro ADME, human
# Method: S 4 Kp in presence of metabolic inhibitor ABT
# A batch of HH derived from a single donor and a pooled batch were each used to measure Kp at 45
# minutes in presence and absence of the CYP inhibitor ABT.[1]
# Time curves over 45 minutes were established in plated HH. […]
# [12] = design: method as in Brown et al, DMD, 2010; details: rat hepatocytes; ref Brown et al, DMD, 2010; cited from earlier work
# [13] = Intracellular unbound drug accumulation ratio (Kpuu) in suspended HH; format: in vitro ADME, human; details: for Kp uu: human, suspended human hepatocytes, suspended HH
# Method: Kpuu was determined as previously described ([7],[18]) using Eq. (1):
# 1 Kpuu=Kp∙fu,cell/fu,medium where Kp is the steady-state cellular uptake, and fu,cell the fraction of unbound compound in the cell, determined as described below. The fraction unbound of the compound in the medium (fu,medium) was equal to 1 as no serum proteins or other drug binding components were added to the incubation media.
# CYP3A4 [14] = tested on: CYP3A4; design: method as in earlier work; details: RH; MDZ/1'-OH; ref [2] Brown et al., Drug Metab Dispos 2010; read-out: Ki (Ki,app); cited from earlier work
# CYP3A4 [15] = details: read-out: Ki (Ki,app); RLM; MDZ/1'-OH; ref [2] Brown et al., Drug Metab Dispos 2010; cited from earlier work
# pKa of RO compounds = format: physicochemical; details: method not stated
# From the text: Table II Properties of the RO Discovery Compound Series and Results in HLM and Suspended HH | column: pKa
# Papp of RO compounds = format: in vitro ADME; details: not told, method not stated
# From the text: Table II Properties of the RO Discovery Compound Series and Results in HLM and Suspended HH | column: Papp (× 10^−6 cm/s)
# CYP2C9 = CYP2C9 inhibition assay in HLM and HH (diclofenac); format: biochemical, human; details: diclofenac as substrate
# Method: After the addition of 20 μL of 10 mM NADPH, the plate was incubated for 5 min. The reaction was stopped by adding 200 μL of acetonitrile containing an internal standard. After centrifugation of 10 min at 6200×g, the concentration of the substrate in the samples was determined by LC-MS (Sciex API4000, see S6 for LC-MS parameters).
# as §1
# [16] = azole series (itraconazole 24 h dialysis)
# T1 sequence (P05177 whole entry): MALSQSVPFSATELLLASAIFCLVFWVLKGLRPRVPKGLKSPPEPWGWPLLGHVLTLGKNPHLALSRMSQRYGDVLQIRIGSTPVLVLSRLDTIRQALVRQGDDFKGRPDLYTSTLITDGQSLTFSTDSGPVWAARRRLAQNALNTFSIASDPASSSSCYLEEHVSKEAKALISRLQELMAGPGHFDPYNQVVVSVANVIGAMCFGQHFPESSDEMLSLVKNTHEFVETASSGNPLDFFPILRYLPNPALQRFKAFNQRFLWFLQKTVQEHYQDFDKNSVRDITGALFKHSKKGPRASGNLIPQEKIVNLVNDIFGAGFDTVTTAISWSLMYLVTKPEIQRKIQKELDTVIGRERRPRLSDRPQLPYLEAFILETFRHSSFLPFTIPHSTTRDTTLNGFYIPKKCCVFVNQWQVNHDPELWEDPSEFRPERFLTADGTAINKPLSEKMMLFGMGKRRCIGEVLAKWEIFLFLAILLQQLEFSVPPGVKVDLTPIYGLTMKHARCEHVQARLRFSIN
Structure (SMILES),"fraction unbound at 4 h, 0.5 μM ([1]; human liver microsomes)","Kp at 5 min, 0.5 μM [5]",pKa (pKa of RO compounds),Papp (Papp of RO compounds) [×10⁻⁶ cm/s],"fraction unbound at 4 h, 0.5 μM ([9]; RO compounds)",Kp uu ([13]; RO compounds),further results
CCn1cc(C(=O)O)c(=O)c2cc(F)c(N3CCNCC3)nc21 [Enoxacin],0.53 ± 0.13,–,–,–,–,–,"IC50 (CYP1A2 [2]): 2140 ± 370 µM; Kp uu [3]: 20; fu,mic [4]: 0.99; Kp at 0.5 μM ([5]; 0.5 μM, reference compounds): 7.4 ± 1.1; Ki (CYP1A2 [6]): 120 ± 65 µM; IC50 (CYP1A2 [7]): 422 ± 93 µM; fu,cell [8]: 0.99; fraction unbound at 4 h, 0.5 μM ([9]; 0.5 μM, reference compounds): 1; Ki (CYP1A2 [10]): 2800 ± 1200 µM; mass balance ([11]; hepatocyte experiments, suspended HH, without ABT): ~ 100%; Kp [12]: 20"
"CCC(C)n1ncn(-c2ccc(N3CCN(c4ccc(OCC5COC(Cn6cncn6)(c6ccc(Cl)cc6Cl)O5)cc4)CC3)cc2)c1=O (centres unmarked) [Itraconazole, reference compound]",–,–,–,–,–,–,"fraction unbound at 0.5 μM ([1]; human liver microsomes): 0.21 ± 0.13; Kp at 0.5 μM ([5]; azole series): 2720 ± 1570; fu,cell [9, 16]: 0.003 ± 0.002; Kp uu ([13]; azole series): 7.5 ± 6.3"
"CC(=O)N1CCN(c2ccc(OCC3COC(Cn4ccnc4)(c4ccc(Cl)cc4Cl)O3)cc2)CC1 (centres unmarked) [Ketoconazole, reference compound]",–,–,–,–,–,–,"fraction unbound at 0.5 μM ([1]; microsomes): 0.32 ± 0.12; fraction unbound at 0.5 μM [9, 16]: 0.004 ± 0.001"
Cc1c(O)cccc1C(=O)N[C@@H](CSc1ccccc1)[C@H](O)CN1C[C@H]2CCCC[C@H]2C[C@H]1C(=O)NC(C)(C)C [Nelfinavir],0.04 ± 0.02,–,–,–,–,–,"fu,mic [4]: 0.022; fu,cell [8]: 0.035; fu,cell ([9]; 0.5 μM, reference compounds): 0.00025 ± 0.00005; fraction unbound at 4 h, 0.5 μM ([9]; 0.5 μM, reference compounds): 0.0002; Ki (CYP3A4 [14]): […]; Kpuu with wash buffers at 4 and 37°C, with and without albumin ([13]; 45 minutes, except 4°C without albumin vs 37°C containing albumin): did not differ; Ki (CYP3A4 [15]): […]; Kp in presence or absence of ABT ([11]; HH, 45 minutes): unaffected; change of mass balance upon addition of ABT ([11]; suspended HH, 45 minutes): approximately doubled; Kp [12]: 3352"
"CC[C@@H]([C@H](C)O)n1ncn(-c2ccc(N3CCN(c4ccc(OC[C@@H]5CO[C@@](Cn6cncn6)(c6ccc(F)cc6F)C5)cc4)CC3)cc2)c1=O [Posaconazole, reference compound]",–,–,–,–,–,–,"fraction unbound at 0.5 μM ([1]; human liver microsomes): 0.21 ± 0.11; Kp at 0.5 μM ([5]; azole series): 6930 ± 1240; fraction unbound at 0.5 μM [9, 16]: 0.005 ± 0.003; Kp uu ([13]; azole series): 37.6 ± 12.8"
Cc1cccc(S(=O)(=O)NC(=O)Nc2cc(Br)cc(N)n2)c1 [RO01],0.42 ± 0.06,24 ± 2.2,5.41,10,0.0149 ± 0.0003,0.357 ± 0.003,"difference of IC50,app between HH and HLM (CYP2C9): identical"
Cc1cccc2cc(S(=O)(=O)NC(=O)Nc3ncc(Br)s3)sc12 [RO02],0.36 ± 0.09,47.3 ± 1.1,3.14,2,0.0013 ± 7e-05,0.0613 ± 0.0002,–
COCc1oc(S(=O)(=O)NC(=O)Nc2ncc(Br)s2)cc1C [RO03],0.41 ± 0.03,17.9 ± 8.9,2.91,9,0.017 ± 0.001,0.3 ± 0.08,"difference of IC50,app between HH and HLM (CYP2C9): identical"
COCc1oc(S(=O)(=O)NC(=O)Nc2nc(C)c(Br)s2)cc1C [RO04],0.45 ± 0.11,27.6 ± 26.1,2.8,13,0.02 ± 0.01,0.46 ± 0.65,"difference of IC50,app between HH and HLM (CYP2C9): identical"
O=C(Nc1ncc(Br)s1)NS(=O)(=O)c1cc2cccc(Cl)c2s1 [RO05],0.23 ± 0.02,18.5 ± 4.4,2.76,2,0.0021 ± 0.0003,0.039 ± 0.003,–
Cn1c(S(=O)(=O)NC(=O)Nc2ncc(Br)s2)cc2ccccc21 [RO06],0.36 ± 0.11,61.6 ± 38.6,2.8,3,0.0039 ± 0.0003,0.24 ± 0.1,–
COc1cc(C)c(-c2sc(S(=O)(=O)NC(=O)Nc3ncc(Br)s3)cc2C)cn1 [RO07],0.84 ± 0.06,41.9 ± 4.8,3.17,4,0.00392 ± 3e-05,0.16 ± 0.01,–
Cc1cccc(S(=O)(=O)NC(=O)Nc2snc(C)c2Br)c1 [RO08],0.41 ± 0.09,22.2 ± 4.3,2.66,22,0.009 ± 0.004,0.21 ± 0.05,–
COCCc1sc(S(=O)(=O)NC(=O)Nc2snc(C)c2Br)cc1C [RO09],0.97 ± 0.41,11.7 ± 2,2.49,2,0.0075 ± 0.0006,0.088 ± 0.003,"difference of IC50,app between HH and HLM (CYP2C9): 12 fold"
